Test results taken from patent publication US8716292B2, “Riminophenazines with 2-(heteroaryl)amino substituents and their anti-microbial activity” (priority 2010, dated 2014).
In brackets after ≈: the same amount, converted by molar mass.

system: Mycobacterium tuberculosis H37Rv strains; test: In vitro assay for antimicrobial susceptibility (microplate Alamar blue MIC); format: cell-based; conditions: Mycobacterium tuberculosis, H37RV, 7H9, Alamar blue, inhibition ≧90%; read-out: MIC (μg/mL) against H37Rv

Compound	MIC [µg/mL]
Clc1cccc(-n2c3c/c(=N\C4CCOCC4)c(Nc4cncnc4)cc-3nc3ccccc32)c1 [TBI-980, 5-(3-Chlorophenyl)-3-(4-tetrahydropyranyl)imino-2-(pyrimidin-5-yl)amino-3,5-dihydrophenazine]	0.06 (≈ 0.124 µM)

same assay, conditions: Mycobacterium tuberculosis, H37RV, in vitro, Mycobacterium tuberculosis H37Rv strains; read-out: MIC (μg/mL) against H37Rv

Compound	MIC [µg/mL]
Cc1ccc(Nc2cc3nc4ccc(F)cc4n(-c4ccc(OC(F)(F)F)cc4)c-3c/c2=N\C(C)C)cn1 [TBI-854, 7-Fluoro-5-(4-trifluoromethoxyphenyl)-3-(1-methylethyl)imino-2-(6-methyl-3-pyridyl)amino-3,5-dihydrophenazine]	0.067 (≈ 0.128 µM)
COc1ncccc1Nc1cc2nc3ccccc3n(-c3ccc(Cl)cc3Cl)c-2c/c1=N\C1CC1 [TBI-370, 5-(2,4-Dichlorophenyl)-3-cyclopropylimino-2-(2-methoxy-3-pyridyl)amino-3,5-dihydrophenazine]	0.052 (≈ 0.104 µM)
COc1ncccc1Nc1cc2nc3ccccc3n(-c3ccc(C(F)(F)F)cc3)c-2c/c1=N\C1CCC(O)CC1 (stereo not shown) [TBI-719, 5-(4-Trifluoromethylphenyl)-3-(4-hydroxycyclohexyl)imino-2-(2-methoxy-3-pyridyl)amino-3,5-dihydrophenazine]	0.204 (≈ 0.365 µM)
COCC(COC)/N=c1\cc2n(-c3ccc(C)cc3)c3ccccc3nc-2cc1Nc1ccc(C)nc1 [TBI-374, 5-(4-Methylphenyl)-3-(1,3-dimethoxyisopropyl)imino-2-(6-methyl-3-pyridyl)amino-3,5-dihydrophenazine]	0.125 (≈ 0.253 µM)
COc1ncccc1Nc1cc2nc3ccccc3n(-c3ccc(C(F)(F)F)cc3)c-2c/c1=N\C1CCN(C)CC1 [TBI-703, 5-(4-Trifluoromethylphenyl)-3-(N-methyl-4-piperidyl)imino-2-(2-methoxy-3-pyridyl)amino-3,5-dihydrophenazine]	0.02 (≈ 0.0358 µM)
COC1CCC(/N=c2\cc3n(-c4ccc(F)c(F)c4)c4ccccc4nc-3cc2Nc2cccnc2)CC1 (stereo not shown) [TBI-1430, 5-(3,4-Difluorophenyl)-3-(4-methoxycyclohexyl)imino-2-(3-pyridyl)amino-3,5-dihydrophenazine]	0.059 (≈ 0.115 µM)
Cc1ccc(Nc2cc3nc4ccccc4n(-c4ccc(F)cc4)c-3c/c2=N\C2CCN(C)CC2)cn1 [TBI-901, 5-(4-Fluorophenyl)-3-(N-methyl-4-piperidyl)imino-2-(6-methyl-3-pyridyl)amino-3,5-dihydrophenazine]	0.102 (≈ 0.207 µM)
COc1ncccc1Nc1cc2nc3ccccc3n(-c3ccc(Cl)cc3)c-2c/c1=N\C1CCCCC1 [TBI-451]	0.057 (≈ 0.112 µM)
Cc1ccc(Nc2cc3nc4ccccc4n(-c4ccccc4)c-3c/c2=N\C2CCCCC2)cn1 [TBI-080, 5-Phenyl-3-cyclohexylimino-2-(6-methyl-3-pyridyl)amino-3,5-dihydrophenazine]	0.243 (≈ 0.529 µM)
COc1ncccc1Nc1cc2nc3ccccc3n(-c3ccccc3)c-2c/c1=N\C1CCOCC1 [TBI-066, 5-Phenyl-3-(4-tetrahydropyranyl)imino-2-(2-methoxy-3-pyridyl)amino-3,5-dihydrophenazine]	0.026 (≈ 0.0544 µM)
COc1ncccc1Nc1cc2nc3ccccc3n(-c3ccccc3)c-2c/c1=N\C1CCC(O)CC1 (stereo not shown) [TBI-087, 5-Phenyl-3-(4-hydroxycyclohexyl)imino-2-(2-methoxy-3-pyridyl)amino-3,5-dihydrophenazine]	0.466 (≈ 0.948 µM)
COC1CCC(/N=c2\cc3n(-c4ccc(Cl)c(Cl)c4)c4ccccc4nc-3cc2Nc2ccc(C)nc2)CC1 (stereo not shown) [TBI-355, 5-(3,4-Dichlorophenyl)-3-(4-methoxycyclohexyl)imino-2-(6-methyl-3-pyridyl)amino-3,5-dihydrophenazine]	0.09 (≈ 0.161 µM)
COc1ncccc1Nc1cc2nc3ccccc3n(-c3ccc(C(F)(F)F)cc3)c-2c/c1=N\C1CCC(OC)CC1 (stereo not shown) [TBI-700, 5-(4-Trifluoromethylphenyl)-3-(4-methoxycyclohexyl)imino-2-(2-methoxy-3-pyridyl)amino-3,5-dihydrophenazine]	0.016 (≈ 0.0279 µM)
Cc1ncccc1Nc1cc2nc3ccccc3n(-c3ccc(F)cc3)c-2c/c1=N\C1CCCCC1 [TBI-1023, 5-(4-Fluorophenyl)-3-cyclohexylimino-2-(2-methyl-3-pyridyl)amino-3,5-dihydrophenazine]	0.0075 (≈ 0.0157 µM)
COc1ccc(Nc2cc3nc4ccccc4n(-c4ccccc4)c-3c/c2=N\C2CC2)cn1 [TBI-511, 5-Phenyl-3-cyclopropylimino-2-(6-methoxy-3-pyridyl)amino-3,5-dihydrophenazine]	0.177 (≈ 0.408 µM)
Cc1cncc(Nc2cc3nc4ccccc4n(-c4ccc(C(F)(F)F)cc4)c-3c/c2=N\C2CCCCC2)c1 [TBI-722, 5-(4-Trifluoromethylphenyl)-3-cyclohexylimino-2-(5-methyl-3-pyridyl)amino-3,5-dihydrophenazine]	0.031 (≈ 0.0588 µM)
COc1ncccc1Nc1cc2nc3cc(F)ccc3n(-c3ccc(Cl)c(Cl)c3)c-2c/c1=N\C(C)C [TBI-874, 8-Fluoro-5-(3,4-dichlorophenyl)-3-(1-methylethyl)imino-2-(2-methoxy-3-pyridyl)amino-3,5-dihydrophenazine]	0.129 (≈ 0.247 µM)
Cc1ncccc1Nc1cc2nc3ccccc3n(-c3ccc(Cl)cc3)c-2c/c1=N\C(C)C [TBI-448, 5-(4-Chlorophenyl)-3-(1-methylethyl)imino-2-(2-methyl-3-pyridyl)amino-3,5-dihydrophenazine]	0.055 (≈ 0.121 µM)
COC1CCC(/N=c2\cc3n(-c4ccccc4C(F)(F)F)c4ccccc4nc-3cc2Nc2cccnc2)CC1 (stereo not shown) [TBI-739]	0.239 (≈ 0.44 µM)
Cc1ccc(Nc2cc3nc4ccccc4n(-c4ccc(Cl)cc4)c-3c/c2=N\CCN2CCOCC2)cn1 [TBI-445, 5-(4-Chlorophenyl)-3-(2-morpholinoethyl)imino-2-(6-methyl-3-pyridyl)amino-3,5-dihydrophenazine]	0.076 (≈ 0.145 µM)

Compound	MIC [µg/mL]
COc1ncccc1Nc1cc2nc3ccccc3n(-c3ccc(Br)cc3)c-2c/c1=N\C1CCCCC1 [TBI-517, 5-(4-Bromophenyl)-3-cyclohexylimino-2-(2-methoxy-3-pyridyl)amino-3,5-dihydrophenazine]	0.029 (≈ 0.0523 µM)
Cc1ccc(-n2c3c/c(=N\C4CCC(O)CC4)c(Nc4ccc(C)nc4)cc-3nc3ccccc32)cc1 (stereo not shown) [TBI-334, 5-(4-Methylphenyl)-3-(4-hydroxycyclohexyl)imino-2-(6-methyl-3-pyridyl)amino-3,5-dihydrophenazine]	0.372 (≈ 0.76 µM)
COc1ccc2nc3cc(Nc4cccnc4OC)/c(=N/C4CCOCC4)cc-3n(-c3ccc(Cl)cc3)c2c1 [TBI-942, 7-Methoxy-5-(4-chlorophenyl)-3-(4-tetrahydropyranyl)imino-2-(2-methoxy-3-pyridyl)amino-3,5-dihydrophenazine]	0.125 (≈ 0.231 µM)
COC1CCC(/N=c2\cc3n(-c4ccc(Cl)cc4)c4cc(F)ccc4nc-3cc2Nc2ccc(C)nc2)CC1 (stereo not shown) [TBI-925]	0.078 (≈ 0.144 µM)
COc1ncccc1Nc1cc2nc3ccccc3n(-c3ccc(F)cc3)c-2c/c1=N\C1CCC(O)CC1 (stereo not shown) [TBI-1008, 5-(4-Fluorophenyl)-3-(4-hydroxycyclohexyl)imino-2-(2-methoxy-3-pyridyl)amino-3,5-dihydrophenazine]	0.248 (≈ 0.487 µM)
COC1CCC(/N=c2\cc3n(-c4ccc(Cl)c(Cl)c4)c4ccccc4nc-3cc2Nc2cccnc2)CC1 (stereo not shown) [TBI-352, 5-(3,4-Dichlorophenyl)-3-(4-methoxycyclohexyl)imino-2-(3-pyridyl)amino-3,5-dihydrophenazine]	0.096 (≈ 0.176 µM)
Cc1ncccc1Nc1cc2nc3ccccc3n(-c3ccc(F)cc3)c-2c/c1=N\C1CCC1 [TBI-1018, 5-(4-Fluorophenyl)-3-cyclobutylimino-2-(2-methyl-3-pyridyl)amino-3,5-dihydrophenazine]	0.028 (≈ 0.0623 µM)
Cc1cncc(Nc2cc3nc4ccccc4n(-c4ccc(C(F)(F)F)cc4)c-3c/c2=N\C2CCC(O)CC2)c1 (stereo not shown) [TBI-727, 5-(4-Trifluoromethylphenyl)-3-(4-hydroxycyclohexyl)imino-2-(5-methyl-3-pyridyl)amino-3,5-dihydrophenazine]	0.405 (≈ 0.745 µM)
COCC(COC)/N=c1\cc2n(-c3ccc(OC(F)(F)F)cc3)c3ccccc3nc-2cc1Nc1cccnc1OC [TBI-372]	0.098 (≈ 0.169 µM)
Cc1ccc(Nc2cc3nc4ccccc4n(-c4ccc(F)cc4)c-3c/c2=N\C2CCCCC2)cn1 [TBI-905, 5-(4-Fluorophenyl)-3-cyclohexylimino-2-(6-methyl-3-pyridyl)amino-3,5-dihydrophenazine]	0.057 (≈ 0.119 µM)
COc1ccc(Nc2cc3nc4ccccc4n(-c4ccc(C(F)(F)F)cc4)c-3c/c2=N\C(C)C)cn1 [TBI-731]	0.348 (≈ 0.691 µM)
COc1ccc(Nc2cc3nc4ccccc4n(-c4ccc(F)cc4)c-3c/c2=N\C2CCC2)cn1 [TBI-934, 5-(4-Fluorophenyl)-3-cyclobutylimino-2-(6-methoxy-3-pyridyl)amino-3,5-dihydrophenazine]	0.3 (≈ 0.644 µM)
FC(F)(F)Oc1cccc(-n2c3c/c(=N\C4CCCCC4)c(Nc4cccnc4)cc-3nc3ccccc32)c1 [TBI-1022, 5-(3-Trifluoromethoxyphenyl)-3-cyclohexylimino-2-(3-pyridyl)amino-3,5-dihydrophenazine]	0.074 (≈ 0.14 µM)
CSc1ccc(-n2c3c/c(=N\C(C)C)c(Nc4cccnc4)cc-3nc3ccccc32)cc1 [TBI-456, 5-(4-Methylthiophenyl)-3-(1-methylethyl)imino-2-(3-pyridyl)amino-3,5-dihydrophenazine]	0.05 (≈ 0.111 µM)
COc1ncccc1Nc1cc2nc3ccccc3n(-c3ccc(C)cc3)c-2c/c1=N\C1CCCCC1 [TBI-331]	0.047 (≈ 0.096 µM)
CC(=O)Nc1ccc(Nc2cc3nc4ccccc4n(-c4ccc(F)cc4)c-3c/c2=N\C(C)C)cn1 [TBI-910, 5-(4-Fluorophenyl)-3-(1-methylethyl)imino-2-(6-acetamino-3-pyridyl)amino-3,5-dihydrophenazine]	0.147 (≈ 0.306 µM)
Cc1ccc(-n2c3c/c(=N\C4CCN(CC(C)C)CC4)c(Nc4cccnc4C)cc-3nc3ccccc32)cc1 [TBI-325, 5-(4-Methylphenyl)-3-(N-isobutyl-4-piperidyl)imino-2-(2-methyl-3-pyridyl)amino-3,5-dihydrophenazine]	0.056 (≈ 0.106 µM)
COc1ncccc1Nc1cc2nc3ccccc3n(-c3ccc(C(F)(F)F)cc3)c-2c/c1=N\C1CCCCC1 [TBI-710, 5-(4-Trifluoromethylphenyl)-3-cyclohexylimino-2-(2-methoxy-3-pyridyl)amino-3,5-dihydrophenazine]	0.03 (≈ 0.0552 µM)
COc1ccc(Nc2cc3nc4ccccc4n(-c4ccccc4)c-3c/c2=N\C2CCC2)cn1 [TBI-512, 5-Phenyl-3-cyclobutylimino-2-(6-methoxy-3-pyridyl)amino-3,5-dihydrophenazine]	0.41 (≈ 0.916 µM)
